Measurements taken from patent US8022036B2, “Use of thymosin alpha 1 for the treatment of immunological diseases” (Sigma-Tau Industrie Farmaceutiche Riunite S.p.A., priority 2006, dated 2011).
No end group written: not given here.

Tests used:
[1] = tested on: bone marrow cells (GM-DCs, FL-DCs); experiment: Murine DC generation from bone marrow cells, flow cytometry and light microscopy; assay type: cell-based, mouse
Source text: (§1) GM-DCs or FL-DCs were obtained from purified CD14+ monocytes from healthy donors or transplanted patients (1 month post-HSCT) cultured in Iscove's modified medium for 7-9 days, in the presence of rGM-CSF (Schering-Plough, Milan, Italy) and rIL-4 (Peprotech, Inalco, Milan, Italy) or FLT3-L (Immunex Corporation, Seattle, Wash.) (Blood. 2004; 103:4232-4239). DC recovery was between 20-30% reduced in cultures from transplanted patients. Murine GM-DCs or FL-DCs were obtained from bone marrow cells for 7-9 days, as described (Blood. 2004; 103:4232-4239). Thymosin alpha 1 and sThymosin alpha 1 were added to the cultures at 20 ng/mL. DCs (>99% CD11c+ consisting of 90-95% CD8-, 5-10% CD8+, and 1-5% B220+ cells) were purified from spleens (spDCs) by magnetic-activated sorting using CD11c MicroBeads and MidiMacs (Miltenyi Biotech). DC populations were further separated into CD8−, CD8+ and B220+ fractions by means of CD8 or B220 MicroBeads (Miltenyi Biotech). DCs were pulsed in serum-free Iscove medium for 24 hours with live unopsonized Aspergillus conidia or Zymosan from Saccharomyces cerevisiae (Sigma) or CpG-ODN 2006 as described.7 Phagocytosis was done as described (Blood. 2004; 103:4232-4239). Photographs were taken using a high Resolution Microscopy Color Camera AxioCam, using the AxioVision Software Rel. 3.1 (Carl Zeiss, Milan, Italy).
(§2) DCs were analyzed for antigen expression with a FACScan flow cytofluorometer (Becton Dickinson, Mountain View, Calif.) equipped with CELLQuest™ software and using conjugated mAbs from PharMingen (Blood. 2004; 103:4232-4239).
To assess how Thymosin alpha 1 would affect the phenotypic and functional properties of murine DCs, bone marrow cells were grown for 7-9 days in medium containing GM-CSF/IL4 or FLT3L, in the presence of Thymosin alpha 1 or a control, scrambled peptide. After maturation, cells were analyzed by flow cytometry and light microscopy (FIG. 1A).
(A) Surface expression of CD11c, CD 11b and B220 on DCs derived from bone marrow of C57BL6, TLR9−/− or IFN-aβR−/−mice and cultured with GM-CSF/IL-4 (GM-DCs) or FLT3L (FL-DCs) in the presence of Thymosin alpha 1 (+) or the scrambled peptide ( ). Percent of double positive cells is indicated.

[2] = tested on: IDO; experiment: IDO expression (immunoblotting) and kynurenine production in DCs; assay type: cell-based, mouse
Method: IDO expression and functional activity were assessed as described in Nat. Immunol. […] Generation, purification and activity of T reg cells Splenic CD4+ T-cells were cocultured with conidia-pulsed DCs for 5 days […] before flow cytometry or ELISPOT assay. 1-MT (Sigma-Aldrich) was used at […].
Cells were assessed for IDO protein expression by immunoblotting and for kynurenine production. Positive and negative controls consisted of IDO protein-expressing MC24 transfectants and mock-transfected MC22 cells, respectively (not shown in the figure).

[3] = GVHD in experimental HSCT with donor T cells and DCs; assay type: in vivo, mouse; details: 10^5 donor T cells plus Thymosin alpha 1-treated GM-DCs, uninfected mice
Method: Human peripheral blood mononuclear cells were obtained from healthy donors and seven recipients of T-cell depleted haploidentical HSCT, upon written informed consent. Donor typing, engraftment and GVHD were assessed as described (Blood. 2005; 106; 4397-4406). Experimental HSCT model Lethally irradiated (8 Gy) C57BL6 mice were infused with T cell-depleted bone marrow cells from BALB/c mice (Blood. 2003; 102:3807-3814). For GVHD, purified donor CD3+ T splenocytes were added to the graft (Science. 2002; 295:2097-2100). Individual mice were graded weekly from 0-2 for each GVHD criterion (see legend to FIG. 3) without knowledge of treatment group.
Mice were either left uninfected for the assessment of GVHD or infected for the assessment of susceptibility to infection. […]
Resistance to infection was assessed in terms of MST (median survival time in days) and fungal growth in the lung ([…] glucosamine content, bars indicating standard errors) 3 days after infection or at the time of death (A). […] The degree of systemic GVHD was assessed by a scoring system that sums changes in five clinical parameters: weight loss, posture (hunching), activity, fur texture, and skin integrity (maximum index=10). […]

[4] = tested on: peripheral CD14+ cells (GM-DCs, FL-DCs); experiment: Human DC generation from peripheral CD14+ cells, surface expression; assay type: cell-based
Source text: as §1, §2
(A) Surface expression of CD11c, CD1a and CD123 on DCs derived from peripheral CD14+ cells of different donors with GM-CSF/IL-4 (GM-DCs) or FLT3L (FL-DCs) in the presence of Thymosin alpha 1. Percent of positive cells is indicated.

[5] = tested on: lymphosarcoma cells; details: BALB/c mice; cited from earlier work
[6] = GM-CSF/IL-4-treated cultures, healthy donors

Q: With “Thymosin alpha 1: naturally occurring thymic peptide; supplied as purified, endotoxin-free sterile lyophilized acetylated polypeptide from SciClone Pharmaceuticals (Ac-SDAAVDTSSEITTKDLKEKKEVVEEAEN; UniProt P06454 2-29, looked up)” as the substance, how does the “B220+CD11c+ cells in FL-DCs” value ([1]; FLT3L culture, 20 ng/mL) read?
A: not increased

Q: What about the “total yield of cells” value ([1]; GM-CSF/IL-4 culture, 20 ng/mL) of the same substance?
A: did not affect total yield of cells

Q: What about the “expansion of pDCs in GM-DCs from TLR9-/- or IFN-aβR-/- mice” value ([1]; GM-DCs from knockout mice) of the same substance?
A: not observed

Q: What about the “expansion of B220+CD11c+ cells” value ([1]; Thymosin alpha 1 alone, without GM-CSF/IL-4 or FLT3L) of the same substance?
A: not observed

Q: What about the “occurrence of pDCs (B220+CD11c+ cells) in GM-DCs” value ([1]; bone marrow cells, GM-CSF/IL-4, 7-9 days, peptide 20 ng/mL) of the same substance?
A: greatly increased the occurrence of pDCs in GM-DCs

Q: What about the “induction of IDO protein and function in DCs from TLR9-/- or IFN-aβR-/- mice” value ([2]; DCs from knockout mice) of the same substance?
A: not observed

Q: What about the “induction of functional IDO (protein, tryptophan to kynurenine conversion)” value ([2]; FL-DCs and GM-DCs) of the same substance?
A: Induction of functional IDO by Thymosin alpha 1 in both FL-DCs and GM-DCs was confirmed

Q: What about the “acceleration of GVHD induction by GM-DCs” value [3] of the same substance?
A: totally prevented the effect

Q: What about the “mobilization of CD123+ pDCs and CD1a+ DCs in FLT3-L cultures” value ([4]; FLT3-L cultures) of the same substance?
A: No such effects were observed

Q: What about the “mobilization of CD1a+DCs” value [4, 6] of the same substance?
A: decreasing that of CD1a+DCs

Q: And the “mobilization of CD123+ pDCs” value [4, 6]?
A: promoted the mobilization of CD123+ pDCs

Q: What about the “local sarcoma growth, liver and lung metastases of lymphosarcoma cells” value [5] of the same substance?
A: significantly reduced
